Laboratory results as given in publication PMC11952222, “Development and comparison of single FLT3-inhibitors to dual FLT3/TAF1-inhibitors as an anti-leukemic approach” (PLOS One, 2025).
“And” between values parts separate entries of the source, which are not always exact repeats. Equal entries are not always repeated. Where two headings read alike, the source gives them in different places.

What was measured:
[1] = biological target: T1, KIT (Homo sapiens, UniProt P10721); test: Eurofins/DiscoverX cell free kinase assay, percent control; type: binding; details: for per_control_1000nM KIT: 1000 nM compound; for per_control_10000nM KIT: 10000 nM compound
T1 construct: purchased Eurofins/DiscoverX
T1 sequence (P10721 26-976): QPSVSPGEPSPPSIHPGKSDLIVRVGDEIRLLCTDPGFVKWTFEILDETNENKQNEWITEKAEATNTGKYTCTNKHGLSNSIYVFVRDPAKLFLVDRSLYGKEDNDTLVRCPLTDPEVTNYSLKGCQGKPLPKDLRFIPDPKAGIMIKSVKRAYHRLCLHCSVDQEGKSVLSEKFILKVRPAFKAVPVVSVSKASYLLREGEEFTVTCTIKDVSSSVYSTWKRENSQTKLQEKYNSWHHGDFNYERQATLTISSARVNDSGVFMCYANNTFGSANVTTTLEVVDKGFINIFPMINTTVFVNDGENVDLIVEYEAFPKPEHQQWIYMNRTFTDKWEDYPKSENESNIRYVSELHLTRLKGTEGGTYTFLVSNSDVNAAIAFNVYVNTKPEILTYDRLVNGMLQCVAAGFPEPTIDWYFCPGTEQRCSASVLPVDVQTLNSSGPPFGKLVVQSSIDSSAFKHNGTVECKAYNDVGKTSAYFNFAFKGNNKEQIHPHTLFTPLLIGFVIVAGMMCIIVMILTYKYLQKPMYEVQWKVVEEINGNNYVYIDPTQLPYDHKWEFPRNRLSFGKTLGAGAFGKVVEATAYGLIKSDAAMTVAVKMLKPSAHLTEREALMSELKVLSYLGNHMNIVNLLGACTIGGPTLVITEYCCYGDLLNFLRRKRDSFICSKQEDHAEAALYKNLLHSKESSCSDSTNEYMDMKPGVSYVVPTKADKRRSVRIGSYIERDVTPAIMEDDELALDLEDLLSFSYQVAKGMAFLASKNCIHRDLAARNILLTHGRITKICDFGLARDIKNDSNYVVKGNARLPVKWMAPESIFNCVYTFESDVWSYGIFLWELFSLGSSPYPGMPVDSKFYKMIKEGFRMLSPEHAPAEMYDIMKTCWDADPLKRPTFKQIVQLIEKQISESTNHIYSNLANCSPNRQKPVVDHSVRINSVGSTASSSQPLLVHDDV
Experimental: (§1) The 3i-compounds underwent activity testing against a panel of 32 bromodomains using the Eurofins/DiscoverX bromoMAX assay, with specific focus on TAF1(2) bromodomain assessed by the KdELECT assay. In a similar manner, kinase activity was evaluated using a panel of 97 kinase proteins using the Eurofins/DiscoverX scanELECT and KdELECT assays, with specific focus on FLT3 protein. An 11-point 3-fold serial dilution of each test compound was prepared in 100% DMSO at 100x final test concentration and subsequently diluted to final concentration (DMSO 1%). […] Percent control was calculated using the following formula: ((test compound signal – positive control signal)/ (negative control signal – positive control signal)) × 100.
(§2) Fig 2 Results of 3i-compound series at concentrations of 1 µM and 10 µM in a cell free Eurofins/DiscoverX assay for kinase and bromodomain proteins. (A) Single-targeted compounds with tyrosine kinase activity but without bromodomain activity. (B) Dual-targeted compounds with both tyrosine kinase and bromodomain activity.

[2] = biological target: T2, FLT3 (Homo sapiens, UniProt P36888); test: as above; type: binding; details: for per_control_1000nM FLT3: 1000 nM compound; for per_control_10000nM FLT3: 10000 nM compound
T2 construct: purchased Eurofins/DiscoverX
T2 sequence (P36888 27-993): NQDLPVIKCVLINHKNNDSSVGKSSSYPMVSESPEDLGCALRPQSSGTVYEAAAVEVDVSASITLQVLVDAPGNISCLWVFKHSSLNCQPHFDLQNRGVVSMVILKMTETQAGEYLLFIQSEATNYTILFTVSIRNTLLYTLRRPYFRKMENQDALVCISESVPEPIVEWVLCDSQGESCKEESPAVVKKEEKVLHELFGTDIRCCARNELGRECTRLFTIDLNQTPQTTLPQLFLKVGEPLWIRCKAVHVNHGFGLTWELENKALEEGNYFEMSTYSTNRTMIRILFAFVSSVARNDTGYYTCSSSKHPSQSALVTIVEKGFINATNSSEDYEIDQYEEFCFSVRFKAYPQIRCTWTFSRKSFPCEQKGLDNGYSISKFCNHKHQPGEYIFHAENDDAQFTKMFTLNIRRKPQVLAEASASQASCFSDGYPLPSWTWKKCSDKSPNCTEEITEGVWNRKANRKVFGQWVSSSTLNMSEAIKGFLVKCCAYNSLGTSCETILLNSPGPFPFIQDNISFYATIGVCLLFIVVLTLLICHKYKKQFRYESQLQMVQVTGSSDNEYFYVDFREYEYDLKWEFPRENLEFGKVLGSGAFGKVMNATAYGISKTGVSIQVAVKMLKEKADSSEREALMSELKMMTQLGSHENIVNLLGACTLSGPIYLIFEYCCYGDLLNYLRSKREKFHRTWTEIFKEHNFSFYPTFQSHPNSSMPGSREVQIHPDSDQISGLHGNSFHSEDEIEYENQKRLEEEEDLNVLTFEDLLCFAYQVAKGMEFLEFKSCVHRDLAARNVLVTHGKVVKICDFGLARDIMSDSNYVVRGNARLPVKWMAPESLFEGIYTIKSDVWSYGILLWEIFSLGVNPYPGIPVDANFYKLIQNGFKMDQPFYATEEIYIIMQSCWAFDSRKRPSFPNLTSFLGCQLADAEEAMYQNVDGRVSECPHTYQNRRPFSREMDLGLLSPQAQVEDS
Experimental: as §1, §2

[3] = tested on: FLT3(ITD,F691L); test: as above; type: binding; details: for per_control_1000nM FLT3(ITD,F691L): 1000 nM compound; for per_control_10000nM FLT3(ITD,F691L): 10000 nM compound
Experimental: as §1, §2

[4] = biological target: T3, PDGFRB (Homo sapiens, UniProt P09619); test: as above; type: binding; details: for per_control_1000nM PDGFRB: 1000 nM compound; for per_control_10000nM PDGFRB: 10000 nM compound
T3 construct: purchased Eurofins/DiscoverX
T3 sequence (P09619 33-1106): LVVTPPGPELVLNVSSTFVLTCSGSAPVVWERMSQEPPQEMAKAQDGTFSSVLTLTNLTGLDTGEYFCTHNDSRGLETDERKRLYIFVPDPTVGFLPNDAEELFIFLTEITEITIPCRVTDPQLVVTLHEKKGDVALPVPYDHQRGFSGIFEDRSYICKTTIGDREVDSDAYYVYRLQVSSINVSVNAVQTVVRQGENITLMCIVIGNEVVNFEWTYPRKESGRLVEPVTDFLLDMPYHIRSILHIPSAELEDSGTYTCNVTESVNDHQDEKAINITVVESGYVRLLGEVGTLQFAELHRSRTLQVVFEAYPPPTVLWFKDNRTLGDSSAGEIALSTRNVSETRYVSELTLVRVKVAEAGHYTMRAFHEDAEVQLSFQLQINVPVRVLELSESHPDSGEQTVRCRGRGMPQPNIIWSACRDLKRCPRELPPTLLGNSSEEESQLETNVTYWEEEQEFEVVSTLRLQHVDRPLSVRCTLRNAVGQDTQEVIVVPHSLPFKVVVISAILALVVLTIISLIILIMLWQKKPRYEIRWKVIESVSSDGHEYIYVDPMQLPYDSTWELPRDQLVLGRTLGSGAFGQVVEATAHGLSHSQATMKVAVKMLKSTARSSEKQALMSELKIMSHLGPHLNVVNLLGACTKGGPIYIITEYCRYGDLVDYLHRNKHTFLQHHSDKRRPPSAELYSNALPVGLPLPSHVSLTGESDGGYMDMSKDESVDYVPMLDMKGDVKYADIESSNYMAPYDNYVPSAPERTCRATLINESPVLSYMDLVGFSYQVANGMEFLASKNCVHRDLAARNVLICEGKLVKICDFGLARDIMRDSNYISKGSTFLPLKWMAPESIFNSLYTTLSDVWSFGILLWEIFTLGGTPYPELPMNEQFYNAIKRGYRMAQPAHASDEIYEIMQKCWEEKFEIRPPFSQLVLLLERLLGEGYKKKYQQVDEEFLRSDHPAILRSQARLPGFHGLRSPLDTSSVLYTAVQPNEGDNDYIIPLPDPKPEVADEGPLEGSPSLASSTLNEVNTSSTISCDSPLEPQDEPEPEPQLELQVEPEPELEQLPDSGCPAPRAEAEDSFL
Experimental: as §1, §2

[5] = tested on: FLT3(ITD,D835V); test: as above; type: binding; details: for per_control_1000nM FLT3(ITD,D835V): 1000 nM compound; for per_control_10000nM FLT3(ITD,D835V): 10000 nM compound
Experimental: as §1, §2

[6] = tested on: FLT3(ITD); test: as above; type: binding; details: for per_control_1000nM FLT3(ITD): 1000 nM compound; for per_control_10000nM FLT3(ITD): 10000 nM compound
Experimental: as §1, §2

[7] = biological target: T4, TAF1(2) (Homo sapiens, UniProt P21675); test: Eurofins/DiscoverX cell free bromodomain assay, percent control; type: binding; details: for per_control_1000nM TAF1(2): 1000 nM compound; for per_control_10000nM TAF1(2): 10000 nM compound
T4 construct: with specific focus on TAF1(2) bromodomain assessed by the KdELECT assay; purchased Eurofins/DiscoverX
T4 sequence (P21675 1519-1628 limits assumed): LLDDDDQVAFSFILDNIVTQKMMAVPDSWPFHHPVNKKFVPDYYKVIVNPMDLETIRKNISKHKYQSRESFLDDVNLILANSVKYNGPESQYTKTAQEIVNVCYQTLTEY
Experimental: as §1

[8] = tested on: DU4475 cells; test: Cell viability, CellTiter Glo, DU4475; type: cell-based; details: for IC50: 72h; for CTG normalized_to_DMSO: fraction relative to DMSO
Experimental: Drug sensitivity and resistance testing in MOLM13, DU4475, HDQP1, and IGROV1 cells was conducted at the Finnish Institute for Molecular Medicine (FIMM), University of Helsinki. In brief, the effects of compounds on cell viability and cell death were quantified with Cell-Titer Glo (Promega) and CellTox Green (Promega), respectively. Compounds or vehicle control were included in cell culture medium at described concentrations for 72h using an automated liquid dispenser in 384-well format. For KASUMI-1 experiments, cells were grown in 96-well plates and similarly incubated with compounds at indicated concentrations for 72h in RPMI + 10% FCS + Gentamicin, followed by lysis and quantification of cell viability with Cell-Titer Glo (Promega).
Raw values from viability and toxicity assays were normalized to DMSO and plotted to heat maps in R using pheatmap (RRID:SCR_016418). Dose-response curves were generated using the drc package in R [40]. In brief, nonlinear modelling was performed to calculate IC50 values for each compound where possible and resulting curves from drc and experimental values were plotted using ggplot2 (RRID:SCR_014601).

[9] = biological target: T5, TAF1(2) bromodomain (Homo sapiens, UniProt P21675); test: Eurofins/DiscoverX KdELECT, TAF1(2) bromodomain IC50; type: binding; details: 11-point 3-fold dilution, top concentration 10,000 nM
T5 construct: with specific focus on TAF1(2) bromodomain assessed by the KdELECT assay; purchased Eurofins/DiscoverX
T5 sequence (P21675 1519-1628 limits assumed): T4 sequence (P21675 1519-1628 limits assumed)
Experimental: as §1

[10] = one independent experiment per value, read-out: DU4475 IC50, individual dose-response curve (CellTiter Glo)
[11] = Homo sapiens, DU-4475, 72 h, mean of n = 3 independent experiments, read-out: DU4475 IC50 (CellTiter Glo)
[12] = Homo sapiens, DU-4475, 72 h, one independent experiment per value, read-out: DU4475 IC50, individual dose-response curve (CellTiter Glo)
[13] = kdELECT, read-out: TAF1(2) IC50

Row | Compound | per_control_1000nM KIT [1] [percent control] | per_control_10000nM KIT [1] [percent control] | per_control_1000nM FLT3 [2] [percent control] | per_control_10000nM FLT3 [2] [percent control] | per_control_1000nM FLT3(ITD,F691L) [3] [percent control] | per_control_10000nM FLT3(ITD,F691L) [3] [percent control] | per_control_1000nM PDGFRB [4] [percent control] | per_control_10000nM PDGFRB [4] [percent control] | per_control_1000nM FLT3(ITD,D835V) [5] [percent control] | per_control_10000nM FLT3(ITD,D835V) [5] [percent control] | per_control_1000nM FLT3(ITD) [6] [percent control] | per_control_10000nM FLT3(ITD) [6] [percent control] | per_control_1000nM TAF1(2) [7] [percent control] | per_control_10000nM TAF1(2) [7] [percent control] | IC50 [8, 10] | IC50 [8, 11] [µM] | IC50 [8, 12] [µM] | IC50 [9, 13] | other results
1 | COc1ccc(-c2cc(NC(=O)c3ccc(C(C)(C)C)cc3)[nH]n2)cc1 [Compound 3i-1103] | 0 | 0 | 0 | 0 | 38 | 9.4 | 0 | 0 | 42 | 6 | 1.2 | 2.1 | 21 | 2.6 | 18.2 µM and 19 µM | 19.8 | 22.1 | 0.48 µM | CTG normalized_to_DMSO ([8]; DU4475, exp 1, 0.3 µM): 1.0025; CTG normalized_to_DMSO ([8]; DU4475, exp 1, 1 µM): 0.9677; CTG normalized_to_DMSO ([8]; DU4475, exp 1, 3 µM): 0.8934; CTG normalized_to_DMSO ([8]; DU4475, exp 1, 10 µM): 0.6779; CTG normalized_to_DMSO ([8]; DU4475, exp 1, 30 µM): 0.07396
2 | CC(C)(C)c1ccc(C(=O)Nc2cc(-c3ccccc3)n[nH]2)cc1 [Compound 3i-1247, 4-(tert-butyl)-N-(3-phenyl-1H-pyrazol-5-yl)benzamide] | 0 | 0 | 12 | 0 | 9.7 | 0.1 | 0 | 0 | 11 | 0.3 | 3.2 | 12 | 97 | 78 | 2.5 µM and 2.9 µM and 2.7 µM | – | – | – | activity in DU4475 cells ([8]; compared to dual FLT3/TAF1(2) inhibitors 3i-1103, 3i-1246, 3i-1248): superior activity; IC50 ([9]; TAF1(2) IC50, kdELECT): > 10 µM
3 | Cn1cc(-c2cc(NC(=O)c3ccc(C(C)(C)C)cc3)n[nH]2)ccc1=O [Compound 3i-1248, 4-(tert-butyl)-N-(5-(1-methyl-6-oxo-1,6-dihydropyridin-3-yl)-1H-pyrazol-3-yl)benzamide] | 8.2 | 0.1 | 6.7 | 0.15 | 29 | 1.9 | 11 | 0.35 | 5.3 | 0.15 | 0 | 12 | 0.3 | 0.05 | 9.8 µM and 9.5 µM | 9.4 | 8.8 | 0.0051 µM | –
4 | Cc1cc(-c2cc(NC(=O)c3ccc(C(C)(C)C)cc3)[nH]n2)ccn1 [Compound 3i-1246, 4-(tert-butyl)-N-(3-(2-methylpyridin-4-yl)-1H-pyrazol-5-yl)benzamide] | 0 | 0 | 0 | 0.2 | 3.3 | 1.6 | 0 | 0 | 0.55 | 0.2 | 2.7 | 1.2 | 4.1 | 3.6 | 7.6 µM and 7.8 µM | 7.5 | 7.1 | 0.28 µM and 0.26 µM | –
